Data taken from ChEMBL document CHEMBL1201862, “PubChem BioAssay data set” (2004).
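Assay format: 96-well plates, 48-hour exposure. GI50 marks 50% less growth.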 Activity calls are given as the source filed them. No stated cut-off is given here; in the data, active = GI50 up to about 1.1 µM and inactive = higher.

Experiments:
Test in all cases: NCI anticancer screen, dose series, 48 h
[1] = test system: KM12
[2] = test system: NCI/ADR-RES
[3] = test system: RPMI-8226
[4] = test system: HCC 2998
[5] = test system: UACC-62
[6] = test system: UO-31
[7] = test system: RXF 393
[8] = test system: UACC-257
[9] = test system: EKVX
[10] = test system: MCF7
[11] = test system: DMS-114
[12] = test system: SNB-19
[13] = test system: A498
[14] = test system: NCI-H226
[15] = test system: KM-20L2

Measured: GI50

CN(C)/N=N/c1ccc([N+](=O)[O-])cc1C(N)=O
inactive: [1] > 100 µM | [2] > 100 µM | [3] > 100 µM | [4] > 100 µM | [5] > 100 µM | [6] > 82 µM | [7] > 100 µM | [8] > 100 µM | [9] > 71.3 µM | [10] > 100 µM | [11] > 100 µM | [12] > 66.5 µM | [13] > 80.9 µM | [14] > 100 µM | [15] > 100 µM

CC(C)(C)C(=O)OCC1OC(N=[N+]=[N-])C(OC(=O)C(C)(C)C)C(OC(=O)C(C)(C)C)C1OC(=O)C(C)(C)C (stereo not given)
inactive: [1] > 100 µM | [3] > 100 µM | [4] > 100 µM | [5] > 100 µM | [6] > 100 µM | [7] > 100 µM | [8] 82.2 µM | [9] > 100 µM | [11] > 100 µM | [12] > 100 µM | [13] > 100 µM | [15] > 100 µM

Nc1nnc(CCC(=O)Nc2cc(Cl)ccc2Cl)n1N
inactive: [1] > 100 µM | [3] > 100 µM | [4] > 100 µM | [5] > 100 µM | [6] > 100 µM | [7] > 100 µM | [8] > 100 µM | [9] > 100 µM | [11] > 100 µM | [12] > 100 µM | [13] > 100 µM | [14] > 100 µM | [15] > 100 µM

CCOC(=O)C(=O)Nc1cccc(C)c1C
inactive: [1] > 100 µM | [3] > 100 µM | [4] > 100 µM | [5] > 100 µM | [6] > 100 µM | [8] > 100 µM | [9] > 100 µM | [11] > 100 µM | [12] > 100 µM | [13] > 100 µM | [14] > 100 µM | [15] > 100 µM

CCCCNC1=C2C(=O)NN=C2CO1
inactive: [1] > 100 µM | [3] > 100 µM | [4] > 100 µM | [5] > 100 µM | [6] > 100 µM | [7] > 100 µM | [8] > 100 µM | [9] > 100 µM | [11] > 100 µM | [12] > 100 µM | [13] > 100 µM | [14] > 100 µM | [15] > 100 µM

C=C1C(=O)O[C@@H]2[C@H]3O[C@]3(C)CCC=C(C)CC[C@@H]12
inactive: [1] 16.8 µM | [2] 15 µM | [3] 8.71 µM | [4] 24.2 µM | [5] 16.8 µM | [6] 42 µM | [7] 12.2 µM | [8] 14.9 µM | [9] 17.4 µM | [10] 16.4 µM | [11] 45.9 µM | [12] 63.7 µM | [13] 7.05 µM | [14] 20.5 µM | [15] 24.8 µM
